# Tests used:
# Format in all cases: functional
# [1] = system: NCI-H460; assay: Growth inhibition of human NCI-H460 cells
# [2] = system: MCF7; assay: Growth inhibition of human MCF7 cells
# [3] = system: DU-145; assay: Growth inhibition of human DU145 cells
# [4] = system: P388; assay: Growth inhibition of mouse P388 cells; settings: for EC50: read-out: ED50 (the source's name)
# [5] = system: KM-20L2; assay: Growth inhibition of human KM20L2 cells
# [6] = Growth inhibition of human SF269 cells
# [7] = system: BXPC-3; assay: Growth inhibition of human BXPC3 cells
SMILES,GI50 [1] [µg/mL],GI50 [2] [µg/mL],GI50 [3] [µg/mL],EC50 [4] [µg/mL],GI50 [5] [µg/mL],GI50 [6] [µg/mL],GI [7] [µg/mL],GI50 [4] [µg/mL]
CC(=O)O[C@H]1[C@@H]2NC(=O)c3cc4c(cc3[C@H]2C[C@H](OC(C)=O)[C@H]1OC(C)=O)OCO4,1.5,0.46,0.46,1.61,0.66,0.3,0.69,
CC1(C)O[C@H]2[C@@H]3NCc4cc5c(cc4[C@H]3C[C@H](O[Si](C)(C)C(C)(C)C)[C@H]2O1)OCO5,,,,,,,,> 10
O=C1N[C@H]2[C@H](O)[C@H](O)[C@@H](O)C[C@@H]2c2cc3c(cc21)OCO3,0.037,0.03,0.025,< 0.01,0.028,0.03,0.036,
O=C1N[C@@H]2C(=C[C@H](O)[C@@H](O)[C@H]2O)c2cc3c(cc21)OCO3,0.11,0.093,0.062,< 0.01,0.15,0.047,0.12,
CC1(C)O[C@@H]2[C@H](O1)[C@@H](O[Si](C)(C)C(C)(C)C)C=C1c3cc4c(cc3C(=O)N[C@H]12)OCO4,,,,,,,,> 10
Cl.O[C@@H]1[C@H](O)[C@@H](O)C=C2c3cc4c(cc3CN[C@H]21)OCO4,3.4,3.4,3.2,7.1,> 10,2.9,4.4,
CC(=O)O[C@@H]1[C@H](OC(C)=O)[C@@H](OC(C)=O)C=C2c3cc4c(cc3C(=O)N[C@H]21)OCO4 [LYCORICIDINE TRIACETATE],1.2,0.59,0.48,0.158,0.18,0.15,0.2,
CC1(C)O[C@H]2[C@@H]3NC(=O)c4cc5c(cc4[C@H]3C[C@H](O)[C@H]2O1)OCO5,,,,,,,,> 10
CC1(C)O[C@H]2[C@@H]3NC(=O)c4cc5c(cc4[C@H]3C[C@H](O[Si](C)(C)C(C)(C)C)[C@H]2O1)OCO5,,,,,,,,> 10
Cl.O[C@@H]1[C@H](O)[C@@H](O)C[C@@H]2c3cc4c(cc3CN[C@@H]12)OCO4,0.78,1.7,0.71,3.3,1.7,1.6,1.4,
CC(=O)O[C@H]1C=C2c3cc4c(cc3C(=O)N[C@H]2[C@H](O)[C@@H]1O)OCO4,0.32,0.24,0.26,< 0.01,0.18,0.19,0.26,
CC(=O)O[C@H]1C=C2c3cc4c(cc3C(=O)N[C@H]2[C@@H]2OC(C)(C)O[C@@H]21)OCO4,,,,,,,,> 10
O=C1N[C@@H]2C(=C[C@H](O)[C@@H](O)[C@H]2O)c2cc3c(c(O)c21)OCO3 [NARCICLASINE],0.032,0.019,0.011,0.002,0.21,0.021,0.026,
CC1(C)O[C@@H]2[C@H](O1)[C@@H](O[Si](C)(C)C(C)(C)C)C=C1c3cc4c(cc3CN[C@H]12)OCO4,,,,,,,,> 10
O[C@@H]1[C@H](O)[C@@H](O)C[C@@H]2c3cc4c(cc3CN[C@@H]12)OCO4,7.5,> 10,4.4,0.43,> 10,> 10,>10,
CC1(C)O[C@@H]2[C@H](O1)[C@@H](O)C=C1c3cc4c(cc3C(=O)N[C@H]12)OCO4,,,,,,,,> 10
O=C1N[C@H]2[C@H](O)[C@H](O)[C@@H](O)[C@H](O)[C@@H]2c2cc3c(c(O)c21)OCO3 [PANCRATISTATIN],0.048,0.032,0.016,0.039,0.026,0.017,0.028,
CC1(C)O[C@H]2[C@@H]3NCc4cc5c(cc4[C@H]3C[C@H](O)[C@H]2O1)OCO5,,,,,,,,> 10
CC1(C)O[C@@H]2[C@H](O1)[C@@H](O)C=C1c3cc4c(cc3CN[C@H]12)OCO4,,,,,,,,> 10
